The record followed here is patent publication US9694016B2 (Novartis AG, priority 2013, dated 2017).

Molecules are shown by their SMILES.

The target of the assay is b-Raf (V600E) (Homo sapiens (Human), UniProt P15056, V600E). As to conditions: read-out: b-Raf IC-50; AlphaScreen, 60 min pre-incubation, reaction 3 hours at room temperature. For orientation: Alpha assays give light when donor and acceptor beads are brought close together.
b-Raf (V600E), sequence (P15056 whole entry V600E): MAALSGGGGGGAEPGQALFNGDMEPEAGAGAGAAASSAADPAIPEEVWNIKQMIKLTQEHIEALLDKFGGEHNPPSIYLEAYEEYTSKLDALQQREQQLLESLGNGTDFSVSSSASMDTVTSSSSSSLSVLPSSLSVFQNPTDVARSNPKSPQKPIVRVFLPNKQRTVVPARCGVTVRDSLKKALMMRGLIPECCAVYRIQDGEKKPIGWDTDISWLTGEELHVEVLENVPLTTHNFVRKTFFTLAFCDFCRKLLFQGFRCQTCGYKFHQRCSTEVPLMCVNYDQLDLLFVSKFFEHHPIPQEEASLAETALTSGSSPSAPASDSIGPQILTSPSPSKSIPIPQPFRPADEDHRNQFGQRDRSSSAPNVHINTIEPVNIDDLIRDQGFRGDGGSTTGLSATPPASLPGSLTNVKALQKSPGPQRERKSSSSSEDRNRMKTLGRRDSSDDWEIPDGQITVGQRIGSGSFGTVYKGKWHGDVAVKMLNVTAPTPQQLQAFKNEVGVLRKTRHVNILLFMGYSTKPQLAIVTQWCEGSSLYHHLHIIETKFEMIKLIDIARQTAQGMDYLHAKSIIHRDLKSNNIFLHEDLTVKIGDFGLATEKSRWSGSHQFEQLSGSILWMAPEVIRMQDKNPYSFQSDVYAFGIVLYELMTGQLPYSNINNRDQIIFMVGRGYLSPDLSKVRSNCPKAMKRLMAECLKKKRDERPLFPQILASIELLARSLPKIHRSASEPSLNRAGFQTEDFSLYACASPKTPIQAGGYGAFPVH
Regarding `Cc1ncc(NC(=O)c2ccnc(C(C)(F)F)c2)cc1-c1cc(NCCO)nc(N2CCOCC2)c1` [Example 1041, 2-(1,1-difluoroethyl)-N-(2′-((2-hydroxyethyl)amino)-2-methyl-6′-morpholino-[3,4′-bipyridin]-5-yl)isonicotinamide], the IC50 came to 5.72 nM.
With `Cc1ncc(NC(=O)c2ccnc(C(C)(C)C#N)c2)cc1-c1cc(NCCO)nc(N2CCOCC2)c1` [Example 1042, 2-(2-cyanopropan-2-yl)-N-(2′-((2-hydroxyethyl)amino)-2-methyl-6′-morpholino-[3,4′-bipyridin]-5-yl)isonicotinamide], the IC50 was 40.6 nM.
For `Cc1ncc(NC(=O)c2ccnc(S(C)(=O)=O)c2)cc1-c1cc(NCCO)nc(N2CCOCC2)c1` [Example 1043, N-(2′-((2-hydroxyethyl)amino)-2-methyl-6′-morpholino-[3,4′-bipyridin]-5-yl)-2-(methylsulfonyl)isonicotinamide], the IC50 came out at 22.8 nM.
The value for `CCn1cc(C(=O)Nc2cnc(C)c(-c3cc(NCCO)nc(N4CCOCC4)c3)c2)cc(C(F)(F)F)c1=O` [Example 1044, 1-ethyl-N-(2′-((2-hydroxyethyl)amino)-2-methyl-6′-morpholino-[3,4′-bipyridin]-5-yl)-6-oxo-5-(trifluoromethyl)-1,6-dihydropyridine-3-carboxamide] was 30.6 nM; that for `CCN1CCN(c2cc(C(=O)Nc3cnc(C)c(-c4cc(NCCO)nc(N5CCOCC5)c4)c3)cc(C(F)(F)F)c2)CC1` [Example 1045, 3-(4-ethylpiperazin-1-yl)-N-(2′-((2-hydroxyethyl)amino)-2-methyl-6′-morpholino-[3,4′-bipyridin]-5-yl)-5-(trifluoromethyl)benzamide] was 32.9 nM; that for `Cc1ncc(NC(=O)c2ccnc(C(C)(C)O)c2)cc1-c1cc(NCCO)nc(N2CCOCC2)c1` [Example 1046, N-(2′-((2-hydroxyethyl)amino)-2-methyl-6′-morpholino-[3,4′-bipyridin]-5-yl)-2-(2-hydroxypropan-2-yl)isonicotinamide] was 68.4 nM.
For `Cc1ccc(NC(=O)c2cnnc(C(F)(F)F)c2)cc1-c1cc(NCCO)nc(N2CCOCC2)c1` [Example 1047, N-(3-(2-((2-hydroxyethyl)amino)-6-morpholinopyridin-4-yl)-4-methylphenyl)-6-(trifluoromethyl)pyridazine-4-carboxamide] the value was 3.95 nM.
The value for `Cc1ccc(NC(=O)c2cnnc(C3CC3)c2)cc1-c1cc(NCCO)nc(N2CCOCC2)c1` [Example 1048, 6-cyclopropyl-N-(3-(2-((2-hydroxyethyl)amino)-6-morpholinopyridin-4-yl)-4-methylphenyl)pyridazine-4-carboxamide] was 1.55 nM; that for `Cc1ccc(NC(=O)c2cnnc(C(C)(C)C#N)c2)cc1-c1cc(NCCO)nc(N2CCOCC2)c1` [Example 1049, 6-(2-cyanopropan-2-yl)-N-(3-(2-((2-hydroxyethyl)amino)-6-morpholinopyridin-4-yl)-4-methylphenyl)pyridazine-4-carboxamide] was 7.69 nM.
Consider `Cc1ccc(NC(=O)c2ccnc(C3(C#N)CC3)c2)cc1-c1cc(NCCO)nc(N2CCOCC2)c1` [Example 1050, 2-(1-cyanocyclopropyl)-N-(3-(2-((2-hydroxyethyl)amino)-6-morpholinopyridin-4-yl)-4-methylphenyl)isonicotinamide], for which the IC50 was 1.31 nM.
Consider `Cc1ncc(NC(=O)c2cnnc(C(F)(F)F)c2)cc1-c1cc(NCCO)nc(N2CCOCC2)c1` [Example 1051, N-(2′-((2-hydroxyethyl)amino)-2-methyl-6′-morpholino-[3,4′-bipyridin]-5-yl)-6-(trifluoromethyl)pyridazine-4-carboxamide], for which the IC50 was determined as 8.19 nM.
For the molecule `Cc1ncc(NC(=O)c2cnnc(C3CC3)c2)cc1-c1cc(NCCO)nc(N2CCOCC2)c1` [Example 1052, 6-cyclopropyl-N-(2′-((2-hydroxyethyl)amino)-2-methyl-6′-morpholino-[3,4′-bipyridin]-5-yl)pyridazine-4-carboxamide], the IC50 was 8.24 nM.
